These results are taken from patent US20210395239A1 (Hoffmann-La Roche Inc., priority 2018, published 2021).

This assay deals with T1, human TLR8 (Homo sapiens, UniProt Q9NR97).
T1 construct: host or cells: HEK293 (HEK-Blue hTLR8)
T1 sequence (Q9NR97 27-1041): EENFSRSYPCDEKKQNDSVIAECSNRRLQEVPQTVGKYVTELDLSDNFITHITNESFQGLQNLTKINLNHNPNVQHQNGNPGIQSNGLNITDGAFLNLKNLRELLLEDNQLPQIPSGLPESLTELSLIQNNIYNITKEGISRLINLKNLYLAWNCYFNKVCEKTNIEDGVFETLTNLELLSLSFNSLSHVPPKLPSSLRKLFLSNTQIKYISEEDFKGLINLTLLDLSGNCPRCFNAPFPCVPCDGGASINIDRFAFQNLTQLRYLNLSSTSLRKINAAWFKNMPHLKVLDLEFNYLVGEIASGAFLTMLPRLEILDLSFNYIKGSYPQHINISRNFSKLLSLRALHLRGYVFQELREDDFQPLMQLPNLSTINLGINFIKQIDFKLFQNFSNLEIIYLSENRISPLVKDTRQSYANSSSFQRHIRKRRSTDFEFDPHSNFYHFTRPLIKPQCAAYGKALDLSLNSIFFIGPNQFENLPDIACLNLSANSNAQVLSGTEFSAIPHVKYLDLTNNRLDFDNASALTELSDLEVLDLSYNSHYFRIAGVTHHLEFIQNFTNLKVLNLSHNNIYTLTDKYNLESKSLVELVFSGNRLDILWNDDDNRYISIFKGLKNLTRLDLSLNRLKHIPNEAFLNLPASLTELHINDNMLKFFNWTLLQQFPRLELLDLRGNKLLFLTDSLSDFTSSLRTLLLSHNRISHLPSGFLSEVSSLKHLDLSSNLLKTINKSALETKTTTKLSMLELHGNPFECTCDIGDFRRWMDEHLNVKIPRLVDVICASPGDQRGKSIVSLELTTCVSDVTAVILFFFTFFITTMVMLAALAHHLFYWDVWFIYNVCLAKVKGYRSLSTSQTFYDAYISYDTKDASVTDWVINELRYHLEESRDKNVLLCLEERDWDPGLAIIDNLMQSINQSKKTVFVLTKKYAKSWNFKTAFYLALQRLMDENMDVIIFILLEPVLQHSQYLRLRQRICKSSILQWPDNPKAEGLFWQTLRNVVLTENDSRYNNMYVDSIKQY
As to the kind of experiment: HEK293-Blue-hTLR-8 cells assay (SEAP reporter, R848 stimulation). In kind it is cell-based. The following applies: HEK293-Blue-hTLR8 cells, R848, 20 hrs; read-out: HEK/hTLR8 IC50. The method, boiled down: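 Antagonism read as reduced R848-induced SEAP reporter secretion, detected by QUANTI-Blue absorbance at 620–655 nm after 2 h. Reporter cells were exposed to compound dilutions in DMEM/10% FBS, 1% DMSO, for 20 h at 37° C.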
Take `[2H]c1ccc2c(N3C[C@H](CN4CCN(c5ccc(N6C[C@H]7C[C@@H]6CN7)nc5)CC4)O[C@H](C)C3)ccc(C#N)c2n1` [Example 153, 2-deuterio-5-[(2S,6R)-2-[[4-[6-[(1R,4R)-2,5-diazabicyclo[2.2.1]heptan-2-yl]-3-pyridyl]piperazin-1-yl]methyl]-6-methyl-morpholin-4-yl]quinoline-8-carbonitrile]: the IC50 was 19 nM.

Turning to `C[C@@H]1CN(c2ccc(C#N)n3ncc(F)c23)C[C@H](CN2CCN(c3ccc(N4CC(C)(N)C4)nc3)CC2)O1` [Example 154, 4-[(2S,6R)-2-[[4-[6-(3-amino-3-methyl-azetidin-1-yl)-3-pyridyl]piperazin-1-yl]methyl]-6-methyl-morpholin-4-yl]-3-fluoro-pyrazolo[1,5-a]pyridine-7-carbonitrile], the IC50 is 50 nM.

On to `[2H]c1ccc2c(N3C[C@H](CN4CCN(c5cccc(N6CC(C)(N)C6)n5)CC4)O[C@H](C)C3)ccc(C#N)c2n1` [Example 155, 5-[(2S,6R)-2-[[4-[6-(3-amino-3-methyl-azetidin-1-yl)-2-pyridyl]piperazin-1-yl]methyl]-6-methyl-morpholin-4-yl]-2-deuterio-quinoline-8-carbonitrile], for which the IC50 was found to be 8 nM.

`[2H]c1ccc2c(N3C[C@H](CN4CC(O)(c5ccc(N6CC(C)(N)C6)cc5)C4)O[C@H](C)C3)ccc(C#N)c2n1` [Example 156, 5-[(2S,6R)-2-[[3-[4-(3-amino-3-methyl-azetidin-1-yl)phenyl]-3-hydroxy-azetidin-1-yl]methyl]-6-methyl-morpholin-4-yl]-2-deuterio-quinoline-8-carbonitrile]: the IC50 amounted to 24 nM.

Regarding `C[C@@H]1CN(c2ccc(C#N)n3nccc23)C[C@H](CN2CC(c3ccc(N4CC(C)(N)C4)nc3)C2)O1` [Example 157, 4-[(2S,6R)-2-[[3-[6-(3-amino-3-methyl-azetidin-1-yl)-3-pyridyl]azetidin-1-yl]methyl]-6-methyl-morpholin-4-yl]pyrazolo[1,5-a]pyridine-7-carbonitrile], the IC50 was determined as 118 nM.

For `C[C@@H]1CN(c2ccc(C#N)n3ncc(F)c23)C[C@H](CN2CC(c3ccc(N4CC(C)(N)C4)nc3)C2)O1` [Example 158, 4-[(2S,6R)-2-[[3-[6-(3-amino-3-methyl-azetidin-1-yl)-3-pyridyl]azetidin-1-yl]methyl]-6-methyl-morpholin-4-yl]-3-fluoro-pyrazolo[1,5-a]pyridine-7-carbonitrile], the IC50 stood at 37 nM.

With `[2H]c1ccc2c(N3C[C@H](CN4CC(c5cccc(N6CC(C)(N)C6)n5)C4)O[C@H](C)C3)ccc(C#N)c2n1` [Example 159, 5-[(2S,6R)-2-[[3-[6-(3-amino-3-methyl-azetidin-1-yl)-2-pyridyl]azetidin-1-yl]methyl]-6-methyl-morpholin-4-yl]-2-deuterio-quinoline-8-carbonitrile], the IC50 amounted to 52 nM.

Consider `C[C@@H]1CN(c2ccc(C#N)n3ncc(F)c23)C[C@H](CN2CC(c3ccc(N4CC(C)(N)C4)cc3)C2)O1` [Example 160, 4-[(2S,6R)-2-[[3-[4-(3-amino-3-methyl-azetidin-1-yl)phenyl]azetidin-1-yl]methyl]-6-methyl-morpholin-4-yl]-3-fluoro-pyrazolo[1,5-a]pyridine-7-carbonitrile], for which the IC50 is 68 nM.

On to `[2H]c1ccc2c(N3C[C@H](CN4CCN(c5ccc(N6CC7(CN(C)C7)C6)nc5)CC4)O[C@H](C)C3)ccc(C#N)c2n1` [Example 161, 2-deuterio-5-[(2R,6S)-2-methyl-6-[[4-[6-(6-methyl-2,6-diazaspiro[3.3]heptan-2-yl)-3-pyridyl]piperazin-1-yl]methyl]morpholin-4-yl]quinoline-8-carbonitrile], for which the IC50 was 8 nM.

Take `[2H]c1ccc2c(N3C[C@H](CN4CCN(c5ccc(N[C@H]6CNC[C@H]6F)nc5)CC4)O[C@H](C)C3)ccc(C#N)c2n1` [Example 162, 2-deuterio-5-[(2S,6R)-2-[[4-[6-[[(3S,4R)-4-fluoropyrrolidin-3-yl]amino]-3-pyridyl]piperazin-1-yl]methyl]-6-methyl-morpholin-4-yl]quinoline-8-carbonitrile]: the IC50 was determined as 11 nM.

Consider `C[C@@H]1CN(c2ccc(C#N)n3nccc23)C[C@H](CN2CC(c3ccc(N4CC(C)(N)C4)cc3)C2)O1` [Example 163, 4-[(2S,6R)-2-[[3-[4-(3-amino-3-methyl-azetidin-1-yl)phenyl]azetidin-1-yl]methyl]-6-methyl-morpholin-4-yl]pyrazolo[1,5-a]pyridine-7-carbonitrile], for which the IC50 was 68 nM.

As for `CO[C@@H]1CN(c2ccc(C3CN(C[C@H]4CN(c5ccc(C#N)n6ncc(F)c56)C[C@@H](C)O4)C3)cn2)C[C@H]1N` [Example 164, 4-[(2S,6R)-2-[[3-[6-[(3R,4R)-3-amino-4-methoxy-pyrrolidin-1-yl]-3-pyridyl]azetidin-1-yl]methyl]-6-methyl-morpholin-4-yl]-3-fluoro-pyrazolo[1,5-a]pyridine-7-carbonitrile], the IC50 amounted to 30 nM.

As for `C[C@@H]1CN(c2ccc(C#N)n3ncc(F)c23)C[C@H](CN2CC(c3ccc(N4C[C@@H]5C[C@H]4CN5)nc3)C2)O1` [Example 165, 4-[(2S,6R)-2-[[3-[6-[(1S,4S)-2,5-diazabicyclo[2.2.1]heptan-2-yl]-3-pyridyl]azetidin-1-yl]methyl]-6-methyl-morpholin-4-yl]-3-fluoro-pyrazolo[1,5-a]pyridine-7-carbonitrile], the IC50 was 92 nM.

On to `CO[C@@H]1CN(c2ccc(N3CCN(C[C@H]4CN(c5ccc(C#N)n6ncc(F)c56)C[C@@H](C)O4)CC3)cn2)C[C@H]1N` [Example 166, 4-[(2S,6R)-2-[[4-[6-[(3R,4R)-3-amino-4-methoxy-pyrrolidin-1-yl]-3-pyridyl]piperazin-1-yl]methyl]-6-methyl-morpholin-4-yl]-3-fluoro-pyrazolo[1,5-a]pyridine-7-carbonitrile], for which the IC50 came out at 31 nM.
